# Patent publication US12686664B2, “SOCE inhibitors and therapeutic uses thereof” (Institut National de la Santé et de la Recherche Médicale …, priority 2020, dated 2026)
# Tested on: PANC-1 cells
# Test: PANC-1 cell apoptosis (AnnexinV-FiTC/PI, flow cytometry)
# Format: cell-based
# Conditions: even at a concentration of 5 μM
# Description: Analysis of Cell Apoptosis. For PANC-1 cell apoptosis measurements, 5×10^6 cells were seeded in 12 well-plates. Cells were incubated for 24 hours with a test compound (GSK-7975-A, SKF-93365 and 6αa) at two different concentrations (5 and 20 μM) compared to DMSO and untreated cells at 37° C. After washing, cells were taken off plates using an enzyme-free solution. Cells were centrifuged for 5 minutes at 1500 rpm and suspended in […] of PBS containing 1 μL of AnnexinV-FiTC and 1 μL of propidium iodide (PI) for 15 minutes at room temperature in the dark. Evaluation of Annexin and PI staining was performed using a flow cytometer (Navios, Beckman Counter) to evaluate cell apoptosis and necrosis.
smiles,measurement,value
"COc1ccc(CCOc2ccc(CCn3cnc4ccccc43)cc2)cc1 [6αa DAD 3-473, 1-[4-(4-Methoxyphenethoxy)phenethyl]-1H-benzo[d]imidazole]",PANC-1 cell death by apoptosis,induces PANC-1 cells by apoptosis
